Data taken from PubChem BioAssay (NCI).
Values joined by “and” are separate entries in the source; they are usually repeats but may differ in a detail not shown here. Identical values can stand only once.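 Interpolation was linear, between the two tested concentrations surrounding the appropriate level; five concentrations were tested over 48 hours in 96-well plates. Abbreviation: GI50, concentration required for 50% inhibition of growth. TGI marks complete inhibition of growth.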

Key:
Assay in all cases: NCI-60 cell line screen, 48 h
TK-10 renal = tested on: TK-10 renal
KM12 colon = tested on: KM12 colon
HL-60(TB) leukemia = tested on: HL-60(TB) leukemia
DU-145 prostate = tested on: DU-145 prostate
HCT-116 colon = tested on: HCT-116 colon
SNB-19 CNS = tested on: SNB-19 CNS
SK-MEL-5 melanoma = tested on: SK-MEL-5 melanoma
SK-MEL-2 melanoma = tested on: SK-MEL-2 melanoma
COLO 205 colon = tested on: COLO 205 colon
LOX IMVI melanoma = tested on: LOX IMVI melanoma

SMILES	GI50 (TK-10 renal)	TGI (TK-10 renal)	TGI (KM12 colon)	GI50 (HL-60(TB) leukemia)	TGI (HL-60(TB) leukemia)	GI50 (DU-145 prostate)	TGI (HCT-116 colon)	GI50 (SNB-19 CNS)	TGI (SNB-19 CNS)	GI50 (SK-MEL-5 melanoma)	TGI (SK-MEL-5 melanoma)	GI50 (SK-MEL-2 melanoma)	TGI (SK-MEL-2 melanoma)	TGI (COLO 205 colon) [µM]	TGI (LOX IMVI melanoma) [µM]	GI50 (KM12 colon) [µM]	TGI (DU-145 prostate) [µM]	GI50 (COLO 205 colon) [µM]	GI50 (LOX IMVI melanoma) [µM]	GI50 (HCT-116 colon) [µM]
CC(C)c1cc(CNc2nc(Nc3cc(C4CC4)[nH]n3)cc(N3CCN(C)CC3)n2)on1	0.53 µM and 0.277 µM	4.19 µM and 5.52 µM	> 10 µM and 10.7 µM	0.359 µM and 0.087 µM	> 10 µM and 1.6 µM	1.57 µM and 0.205 µM	> 10 µM and 44.6 µM	4.59 µM and 0.471 µM	> 10 µM and 23.3 µM	> 10 µM and 1.32 µM	> 10 µM and 4.72 µM	1.69 µM and 0.646 µM	> 10 µM and 2.29 µM							
CCOC(=O)C1=C(NC(C)(C)C)OCC1=O		> 100 µM	> 100 µM		> 100 µM		> 100 µM		> 100 µM				> 100 µM	> 100	> 100					
Fc1ccc(F)c(C2SCc3nc4ccccc4n32)c1 (configuration not stated)		> 100 µM	> 100 µM		53.9 µM		> 100 µM		> 100 µM		46.6 µM			> 100	> 100					
C[C@H]1COC2(c3ccccc3)CCC(=O)N12 (some centres not stated)		> 100 µM	> 100 µM				> 100 µM		> 100 µM		> 100 µM		> 100 µM	> 100	> 100					
COc1ccc(OC)c(-c2cc(-c3ccccc3)nn2-c2ccc(S(N)(=O)=O)cc2)c1	12.7 µM	26 µM	21.6 µM	23.6 µM	> 100 µM	15.6 µM				16.5 µM	31.3 µM	27.5 µM	> 100 µM			6.93	29.5			
CCCCSCc1nc2nc(Cl)c(Cl)nc2[nH]1		73.9 µM	> 100 µM				40.6 µM		> 100 µM		28.8 µM		43.3 µM	37	44.5		> 100			
CCOC(=O)c1cc2cc(NC(=O)c3cc4cc([N+](=O)[O-])ccc4n3C)ccc2n1C	19.7 µM	70.7 µM	> 100 µM	> 100 µM	> 100 µM		30.3 µM	22.7 µM	> 100 µM	74 µM	> 100 µM	> 100 µM	> 100 µM	> 100	28	49		76.5	13.1	14.6
CC1=Nc2c([nH]c(=S)[nH]c2=O)NC(c2ccc(Cl)c(Cl)c2)C1 (configuration not stated)		> 87.7 µM	32.3 µM		> 100 µM		30.1 µM		> 59.8 µM		> 60.7 µM		> 100 µM	32.7	40.3					
COc1cc(OC)c(OC)cc1/C=C1\C=Cc2ccccc21		80 µM	41.8 µM		35.2 µM		21.9 µM				26.1 µM			> 100	33.4		> 100			
CC(F)(F)c1cc(F)ccc1-c1sc2cc(O)ccc2c1Oc1ccc(/C=C/C(=O)O)cc1	22 µM	> 100 µM	18.4 µM	4.44 µM	23.8 µM	12.7 µM	22.1 µM	7.28 µM	20.2 µM	4.05 µM	15.3 µM	4.43 µM	20.8 µM		21.9	4.72	28.5		6.96	8.48
COc1ccc(CCNCc2cccc(OC)c2OC)cc1OC		> 100 µM	> 100 µM		> 100 µM				> 100 µM		> 100 µM		> 100 µM	> 100	> 100					
CN(/N=C/c1ccnc2ccccc12)c1ccc([N+](=O)[O-])cc1[N+](=O)[O-]		> 100 µM	> 100 µM		> 100 µM				> 100 µM		> 100 µM		79.1 µM	> 100	> 100					
COc1cccc(Cn2cc3c(c2)-c2oncc2CC3)c1	0.803 µM	> 100 µM	3.02 µM	0.247 µM	0.762 µM	0.314 µM	29.4 µM	0.543 µM	> 100 µM	0.44 µM	3.09 µM			1.05	> 100	0.379	1.24	0.313	0.912	0.43
O=C1OC(c2ccccc2)=N/C1=C\c1c(O)cc(O)cc1O		> 100 µM	> 100 µM				> 100 µM		> 100 µM		> 100 µM		> 100 µM	> 100	> 100					
O=C(O)C(Br)C(Br)c1ccccc1[N+](=O)[O-] (configuration not stated)		> 100 µM	> 100 µM				> 100 µM		> 100 µM		> 100 µM		> 100 µM	> 100	> 100		> 100			
COc1ccc(/C(Cl)=C(\C=O)c2ccc(Br)cc2)cc1OC		> 100 µM	> 100 µM		> 100 µM				> 100 µM		> 100 µM		74.4 µM	> 100	> 100					
CC(C)CC(CNC(Cc1ccc(Cl)cc1)C(N)=O)NC(=O)C(Cc1cnc[nH]1)NC(=O)CNC(=O)C(NC(=O)C(C)NC(=O)C(Cc1c[nH]c2ccccc12)NC(=O)C(CCC(=O)O)NC(=O)C(N)Cc1ccccc1)C(C)C (configuration not stated)			> 133 µM		> 133 µM		> 133 µM		> 133 µM				> 133 µM	> 133						
O=C(/C=C/c1c(O)ccc2ccccc12)c1cccc2ccccc12		> 100 µM	> 100 µM		> 63.7 µM		> 100 µM		> 100 µM		> 100 µM		> 100 µM	> 100	> 100					
Cc1cccc2c1Oc1cc(Cl)ccc1C2NC(=O)CN(C)C (configuration not stated)		> 100 µM			45.3 µM		> 100 µM		> 100 µM		49.3 µM			> 100	> 100					
CCc1ccccc1-n1c2nc(=O)n(C)c(=O)c-2nc2ccccc21		35.4 µM	34.2 µM				25.8 µM		23.5 µM		16.8 µM		39.1 µM	12.5						

SMILES	GI50 (TK-10 renal)	TGI (TK-10 renal)	TGI (KM12 colon)	GI50 (HL-60(TB) leukemia)	TGI (HL-60(TB) leukemia)	GI50 (DU-145 prostate)	TGI (HCT-116 colon)	GI50 (SNB-19 CNS)	TGI (SNB-19 CNS)	GI50 (SK-MEL-5 melanoma)	TGI (SK-MEL-5 melanoma)	GI50 (SK-MEL-2 melanoma)	TGI (SK-MEL-2 melanoma)	TGI (COLO 205 colon) [µM]	TGI (LOX IMVI melanoma) [µM]	GI50 (KM12 colon) [µM]	TGI (DU-145 prostate) [µM]	GI50 (COLO 205 colon) [µM]	GI50 (LOX IMVI melanoma) [µM]	GI50 (HCT-116 colon) [µM]
O=C(CCCNC(=O)OCc1ccccc1)OCc1ccc2c(c1)C(=O)c1ccccc1C2=O		> 100 µM	> 100 µM		> 100 µM		> 100 µM		> 100 µM		> 100 µM		> 100 µM	> 23	> 100					
CS(=O)c1ccc(-c2nc(-c3ccc(F)cc3)c(-c3ccncc3)[nH]2)cc1 (configuration not stated)	24.3 µM	> 78.1 µM	> 100 µM	23 µM	53.1 µM	31.7 µM	> 63.8 µM	> 77.3 µM	> 100 µM	20.3 µM	50.5 µM	23 µM	49.4 µM	50.2		35.9	> 100	14.7		20.1
COc1ccc(NC(=O)Nc2ccc(Nc3nc(C)cc(Nc4ccc(C)cc4)n3)cc2)cc1	1.68 µM	3.06 µM				1.16 µM		1.06 µM	3.45 µM	1.6 µM	2.96 µM	1.85 µM	3.57 µM	3.62	3.35		2.59	1.94	1.79	
Cc1c(C2Cc3ccccc3N2C(=O)/C=C\C(=O)O)c2ccccc2n1C (configuration not stated)		44.6 µM	35.6 µM		51.6 µM		94.1 µM		37.2 µM		41.5 µM		32 µM	32.1	32.6					
O=C1NC(=O)C2(CCC(O)C2)c2cc[n+]([O-])cc21 (configuration not stated)		> 100 µM	> 100 µM				> 100 µM		> 100 µM				> 100 µM	> 100	> 100		> 100			
CCOC(=O)CC1=NC(=Nc2cc(Cl)ccc2Cl)SC1		> 100 µM	> 100 µM		> 100 µM		> 100 µM		> 100 µM		> 100 µM		> 100 µM	> 100	> 100					
NC1=NC2(O)c3ccccc3C(=O)C2(O)N1 (configuration not stated)		> 100 µM	> 100 µM		> 100 µM		> 100 µM		> 100 µM		> 100 µM		> 100 µM	> 100	> 100					
NS(=O)(=O)c1ccc(NC(=O)CC(=O)Nc2ccc(S(N)(=O)=O)cc2)cc1		> 100 µM			> 100 µM		> 100 µM		> 100 µM		> 100 µM		> 100 µM	> 100	> 100					
O=C(CCC(=O)N/N=C/c1ccccc1O)N/N=C/c1ccccc1O		> 100 µM	> 100 µM				> 100 µM		> 100 µM		> 100 µM		81.3 µM	> 100						
O=C1C(Cl)=C(Nc2cccc(C(F)(F)F)c2)C(=O)N1Cc1ccccc1Cl	14 µM	37.5 µM	33.5 µM			14 µM	5.27 µM	13.1 µM	29.4 µM	2.79 µM	14.7 µM	4.08 µM	19.8 µM	35.8	3.75	12.1	29.6	12	1.41	1.25
CCc1ccc(/C(C)=N/NC(N)=S)cc1		> 100 µM	> 100 µM				> 100 µM		> 100 µM		> 100 µM		> 100 µM	> 100						
OCC(O)COc1c(Cl)ccc(Cl)c1Cl (configuration not stated)		> 100 µM	> 100 µM		> 100 µM		> 100 µM		> 100 µM		> 100 µM		> 100 µM	> 100	> 100					
O=C(N/C(=C\c1ccc(Br)cc1)c1nc2ccccc2s1)c1ccccc1		> 100 µM	> 100 µM				> 100 µM		> 100 µM		> 100 µM		> 100 µM	> 100	> 100					
Cc1[nH]c(=O)nc(CC(O)(c2ccccc2)c2ccccc2)c1-c1ccccc1		> 100 µM	> 100 µM		> 100 µM		> 100 µM		> 100 µM		> 100 µM		> 100 µM	> 100	> 100					
O=C(N=Nc1c(O)[nH]c2c(Cl)cc(Cl)cc12)c1ccncc1		> 100 µM	> 100 µM		> 100 µM		39.2 µM		> 100 µM		33.4 µM		40.2 µM	> 100	42.3					
CC(=O)OCC(OC(C)=O)C(OC(C)=O)C(OC(C)=O)C(=O)CNn1c(-c2ccccc2)nc2ccc(Br)cc2c1=O (configuration not stated)			> 100 µM		> 100 µM		> 100 µM		> 100 µM		> 100 µM		> 100 µM	> 100	> 100					
COc1cc2nc(-c3ccc(-n4cncc4-c4ccc(N)cc4)cc3)sc2c(OC)c1OC	4.93 µM	> 100 µM				7.25 µM	> 100 µM	12.3 µM	51.1 µM	2.74 µM	> 100 µM				> 100		> 100		3.65	3.81
COc1ccc2c(c1OC)-c1c(c3ccc([N+](=O)[O-])cc3c(=O)n1CCCN=[N+]=[N-])C2=O	> 100 µM	> 100 µM	> 100 µM			4.88 µM	38.2 µM	3.62 µM	> 100 µM	12.2 µM	> 100 µM	> 100 µM	> 100 µM	> 100	> 100	> 100	> 100	> 100	5.99	2.93
COc1cc(-c2nc(SCC(=O)Nc3ccc(C(C)=O)cc3)[nH]c(=O)c2C#N)cc(OC)c1OC	96.9 µM	> 100 µM	> 100 µM	35 µM	> 100 µM	62.6 µM	> 100 µM	64 µM	> 100 µM	31.9 µM	> 100 µM			> 100	> 100	63.6	> 100	> 100	41.7	42.1
Oc1ccc(/C=N/Nc2nc3ccccc3s2)c(O)c1	2.1 µM	45.2 µM	15.8 µM			1.86 µM	17.2 µM	2.8 µM	> 100 µM	3.37 µM	> 100 µM			21.3	28.8	2.18	17.6	3.11	3.27	2.78
